In data set [1] the test system is SMN2 minigene (full length SMN2 minigene mRNA containing SMN2 exon 7). The experiment in a line: SMN2 minigene mRNA splicing RT-qPCR assay in cultured cells. It counts as cell-based, human. Conditions: Homo sapiens, HEK293-H, read-out: EC1.5x for production of full length SMN2 mRNA. The essentials: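 Read-out: full-length (exon 7-included) SMN2 minigene mRNA by multiplex RT-qPCR with GAPDH, efficiency-corrected (1+E)^−Ct, GAPDH-normalized and divided by vehicle. Stably transfected HEK293H cells, 24 h compound exposure, duplicates per concentration. Value is EC1.5x, reported as star ranges.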
Background: Quantitative PCR measures a nucleic acid by following its amplification.

In data set [2] the test system is Smn protein. The experiment in a line: Smn protein assay in cultured cells (SMN HTRF). It is filed as cell-based, human. Conditions: for EC1.5x (concentration giving 1.5-fold Smn protein increase): read-out: EC1.5x for Smn protein expression. The essentials: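 Lysates in RIPA with protease inhibitors are incubated overnight at room temperature with HTRF anti-SMN antibodies. EC1.5x is derived from fold increase in ΔF over vehicle.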

[3] abbreviates: HEK293H cells stably transfected with SMN2-A minigene, 24 hours, 7-point concentration curve, 1.5-fold relative to vehicle-treated cells.
Where [4] appears, read: SMA Type 1 patient fibroblast cells (GM03813), 48 hours, 7-point concentration curve, SMN HTRF, concentration producing 1.5 times Smn protein vs DMSO vehicle control.
[5] abbreviates: SMA patient fibroblast cells, 48 hours, 7-point concentration data, fold increase relative to vehicle control (SMN HTRF).

We go through 20 molecules from USRE47689E1, “Compounds for treating spinal muscular atrophy” (PTC Therapeutics, Inc., priority 2011, dated 2019).

Read-outs that look alike come from different tables or passages of the source. A value given as a limit tells only on which side of the number the result lay.

In general, melting point refers to the temperature of the solid-liquid transition.

`Cc1cc(F)c2nc(-c3cc4ccc(N5C[C@@H](C)N[C@@H](C)C5)cc4oc3=O)cn2c1` [Compound 354, 7-[(3R,5S)-3,5-dimethylpiperazin-1-yl]-3-(8-fluoro-6-methylimidazo[1,2-a]pyridin-2-yl)-2H-chromen-2-one]: the melting point is 268 to 275 °C. Moreover, in data set [1] (setting [3]), the EC (1.5-fold) is less than 0.1 µM. The EC1.5x (concentration giving 1.5-fold Smn protein increase) in data set [2] (setting [4]) was in the range of 1000 to 3000 nM. Besides, in data set [2] (setting [5]), the “maximum fold (Fold) increase of Smn protein” value (shortened to “maximum fold (Fold) increase”) was “*** (fold increase between >1.35 and ≤1.5)”.

Turning to `C[C@@H]1CN(c2ccc3cc(-c4cc5ccccn5n4)c(=O)oc3c2)C[C@H](C)N1` [Compound 189, 7-[(3R,5S)-3,5-dimethylpiperazin-1-yl]-3-(pyrazolo[1,5-a]pyridin-2-yl)-2H-chromen-2-one], the melting point fell in the range of 188 to 190 °C. The EC (1.5-fold) in data set [1] (setting [3]) was in the range of 1 to 3 µM. Besides, the “maximum fold (Fold) increase” value in data set [2] (setting [5]) was “** (fold increase between >1.2 and ≤1.35)”.

Molecule `Cc1cn2cc(-c3cc4ccc(C5=CCN(C(C)C)CC5)cc4oc3=O)nc2c(C)n1` [Compound 802, 3-(6,8-dimethylimidazo[1,2-a]pyrazin-2-yl)-7-[1-(propan-2-yl)-1,2,3,6-tetrahydropyridin-4-yl]-2H-chromen-2-one] yielded a melting point of 207 to 217 °C. Also, in data set [1] (24 h), the EC (1.5-fold) is less than 0.1 µM. Moreover, in data set [2], the “maximum fold (Fold) increase” value is “**** (key: *: maximum fold increase of ≤1.2; **: fold increase between >1.2 and ≤1.35; ***: fold increase between >1.35 and ≤1.5; ****: fold increase between >1.5 and ≤1.65; *****: fold increase >1.65)”; the EC1.5x (concentration giving 1.5-fold Smn protein increase) was less than 300 nM.

Molecule `CCN1CCN(c2ccc3cc(-c4cc5cc(C)ccn5n4)c(=O)oc3c2)CC1` [Compound 307, 7-(4-ethylpiperazin-1-yl)-3-(5-methylpyrazolo[1,5-a]pyridin-2-yl)-2H-chromen-2-one] registered a melting point of 257 to 259 °C. In addition, the EC (1.5-fold) in data set [1] (setting [3]) is 0.3 to 1 µM. Also, the EC1.5x (concentration giving 1.5-fold Smn protein increase) in data set [2] (setting [4]) lay in the range of 3000 to 10000 nM. Moreover, the “maximum fold (Fold) increase” value in data set [2] (setting [5]) is “*** (fold increase between >1.35 and ≤1.5)”.

As for `Cc1cn2cc(-c3cc4ccc(N5CCN(C(C)C)CC5)cc4oc3=O)nc2c(C)n1` [Compound 792, 3-(6,8-dimethylimidazo[1,2-a]pyrazin-2-yl)-7-[4-(propan-2-yl)piperazin-1-yl]-2H-chromen-2-one], the melting point is 240 to 242 °C. Moreover, the EC (1.5-fold) in data set [1] (setting [3]) is less than 0.1 µM. In addition, the EC1.5x (concentration giving 1.5-fold Smn protein increase) in data set [2] (setting [4]) is less than 300 nM. Moreover, in data set [2] (setting [5]), the “maximum fold (Fold) increase” value was “**** (fold increase between >1.5 and ≤1.65)”.

In turn, `COc1cccc(-c2cc3ccc(N4CCN[C@@H](C)C4)cc3oc2=O)n1` [Compound 362, 3-(6-methoxypyridin-2-yl)-7-[(3S)-3-methylpiperazin-1-yl]-2H-chromen-2-one] yielded a melting point of 155 to 157 °C. Moreover, the EC (1.5-fold) in data set [1] (setting [3]) fell in the range of 0.3 to 1 µM. The “maximum fold (Fold) increase” value in data set [2] (setting [5]) was “** (fold increase between >1.2 and ≤1.35)”.

In turn, `Cc1ccc2nc(-c3cc4ccc(N5CCNCC5)cc4oc3=O)cn2c1` [Compound 51, 3-(6-methylimidazo[1,2-a]pyridin-2-yl)-7-(piperazin-1-yl)-2H-chromen-2-one] showed a melting point of 229 to 232 °C. Moreover, the EC (1.5-fold) in data set [1] (setting [3]) was 0.1 to 0.3 µM. In data set [2] (setting [4]), the EC1.5x (concentration giving 1.5-fold Smn protein increase) was less than 300 nM. In data set [2] (setting [5]), the “maximum fold (Fold) increase” value is “***** (fold increase >1.65)”.

`O=c1oc2cc(N3CCNCC3)cc(F)c2cc1-c1nc2c(F)cccc2o1` [Compound 292, 5-fluoro-3-(4-fluoro-1,3-benzoxazol-2-yl)-7-(piperazin-1-yl)-2H-chromen-2-one] yielded a melting point of 225 to 230 °C. Further, the EC (1.5-fold) in data set [1] (setting [3]) was 0.3 to 1 µM. Moreover, the “maximum fold (Fold) increase” value in data set [2] (setting [5]) is “*** (fold increase between >1.35 and ≤1.5)”.

`O=c1oc2cc(N3CCN4CCCCC4C3)ccc2cc1-c1cn2cccc(F)c2n1` (stereo not shown) [Compound 578, 3-(8-fluoroimidazo[1,2-a]pyridin-2-yl)-7-(octahydro-2H-pyrido[1,2-a]pyrazin-2-yl)-2H-chromen-2-one] yielded a melting point of 230 to 233 °C. Further, the EC (1.5-fold) in data set [1] (setting [3]) was in the range of 1 to 3 µM. In data set [2] (setting [5]), the “maximum fold (Fold) increase” value is listed as “* (maximum fold increase of ≤1.2)”.

The molecule `Cc1cn2cc(-c3cc4ccc(N5CCNCC5)cc4oc3=O)cc2c(C)n1` [Compound 670, 3-(1,3-dimethylpyrrolo[1,2-a]pyrazin-7-yl)-7-(piperazin-1-yl)-2H-chromen-2-one] had a melting point of 186 to 189 °C. Also, the EC (1.5-fold) in data set [1] (setting [3]) was less than 0.1 µM. Further, in data set [2] (setting [4]), the EC1.5x (concentration giving 1.5-fold Smn protein increase) is less than 300 nM. Further, the “maximum fold (Fold) increase” value in data set [2] (setting [5]) is “***** (fold increase >1.65)”.

`O=c1oc2cc(N3CCN4CCC[C@@H]4C3)ccc2cc1-c1cn2cccc(F)c2n1` [Compound 531, 3-(8-fluoroimidazo[1,2-a]pyridin-2-yl)-7-[(8aR)-hexahydropyrrolo[1,2-a]pyrazin-2(1H)-yl]-2H-chromen-2-one]: the melting point lay within 238 to 241 °C. Also, in data set [1] (setting [3]), the EC (1.5-fold) lay within 0.3 to 1 µM. Further, the “maximum fold (Fold) increase” value in data set [2] (setting [5]) is “** (fold increase between >1.2 and ≤1.35)”.

With `CCN1CCN(c2ccc3cc(-c4cccc(OC)n4)c(=O)oc3c2)CC1` [Compound 360, 7-(4-ethylpiperazin-1-yl)-3-(6-methoxypyridin-2-yl)-2H-chromen-2-one], the melting point lay within 145 to 147 °C. In addition, the EC (1.5-fold) in data set [1] (setting [3]) was in the range of 1 to 3 µM. Moreover, in data set [2] (setting [5]), the “maximum fold (Fold) increase” value was “* (maximum fold increase of ≤1.2)”.

On to `Cc1cn2cc(-c3cc4ccc(N5CCN(C6CCC6)CC5)cc4oc3=O)nc2cn1` [Compound 838, 7-(4-cyclobutylpiperazin-1-yl)-3-(6-methylimidazo[1,2-a]pyrazin-2-yl)-2H-chromen-2-one], for which the melting point lay in the range of 268 to 274 °C. For the same molecule, the EC (1.5-fold) in data set [1] (setting [3]) is less than 0.1 µM. Also, in data set [2] (setting [4]), the EC1.5x (concentration giving 1.5-fold Smn protein increase) was less than 300 nM. In addition, the “maximum fold (Fold) increase” value in data set [2] (setting [5]) is “***** (fold increase >1.65)”.

For the molecule `Cc1ccc2nc(-c3cc4ccc(N5CCNCC5)c(F)c4oc3=O)cn2c1` [Compound 156, 8-fluoro-3-(6-methylimidazo[1,2-a]pyridin-2-yl)-7-(piperazin-1-yl)-2H-chromen-2-one], the melting point is 313 to 319 °C. The EC (1.5-fold) in data set [1] (setting [3]) is 1 to 3 µM. For the same molecule, the “maximum fold (Fold) increase” value in data set [2] (setting [5]) is “** (fold increase between >1.2 and ≤1.35)”.

For `Cc1ccn2cc(-c3cc4ccc(N5CCN[C@@H](C)C5)cc4oc3=O)nc2c1` [Compound 213, 3-(7-methylimidazo[1,2-a]pyridin-2-yl)-7-[(3S)-3-methylpiperazin-1-yl]-2H-chromen-2-one], the melting point lay within 234 to 244 °C. For the same molecule, the EC (1.5-fold) in data set [1] (setting [3]) is 0.1 to 0.3 µM. The “maximum fold (Fold) increase” value in data set [2] (setting [5]) is “*** (fold increase between >1.35 and ≤1.5)”.

`Cc1cn2cc(-c3cc4ccc(N5CCC(NC6CCC6)CC5)cc4oc3=O)nc2c(C)n1` [Compound 924, 7-[4-(cyclobutylamino)piperidin-1-yl]-3-(6,8-dimethylimidazo[1,2-a]pyrazin-2-yl)-2H-chromen-2-one] returned a melting point of 222 to 225 °C. Further, the EC (1.5-fold) in data set [1] (setting [3]) is less than 0.1 µM. In addition, the EC1.5x (concentration giving 1.5-fold Smn protein increase) in data set [2] (setting [4]) is less than 300 nM. For the same molecule, the “maximum fold (Fold) increase” value in data set [2] (setting [5]) was “**** (fold increase between >1.5 and ≤1.65)”.

The molecule `COCCN1CCN(c2ccc3cc(-c4cc5cc(C)nc(C)c5o4)c(=O)oc3c2)CC1` [Compound 799, 3-(5,7-dimethylfuro[2,3-c]pyridin-2-yl)-7-[4-(2-methoxyethyl)piperazin-1-yl]-2H-chromen-2-one] gave a melting point of 235 to 237 °C. Moreover, the EC (1.5-fold) in data set [1] (setting [3]) was less than 0.1 µM. In data set [2] (setting [4]), the EC1.5x (concentration giving 1.5-fold Smn protein increase) was less than 300 nM. In addition, the “maximum fold (Fold) increase” value in data set [2] (setting [5]) is “**** (fold increase between >1.5 and ≤1.65)”.

`Cc1nccn2cc(-c3cc4ccc(N5CCN6CCC[C@H]6C5)cc4oc3=O)cc12` [Compound 642, 7-[(8aS)-hexahydropyrrolo[1,2-a]pyrazin-2(1H)-yl]-3-(1-methylpyrrolo[1,2-a]pyrazin-7-yl)-2H-chromen-2-one] gave a melting point of 175 to 178 °C. Further, in data set [1] (setting [3]), the EC (1.5-fold) is less than 0.1 µM. Besides, the “maximum fold (Fold) increase” value in data set [2] (setting [5]) was “** (fold increase between >1.2 and ≤1.35)”.

Turning to `O=c1oc2cc(N3CCNCC3)ccc2cc1-c1cccnc1` [Compound 12, 7-(piperazin-1-yl)-3-(pyridin-3-yl)-2H-chromen-2-one], the melting point lay within 170 to 172 °C. Moreover, the EC (1.5-fold) in data set [1] (24 h) was 3 to 30 µM. Also, the “maximum fold (Fold) increase” value in data set [2] (setting [5]) was “* (maximum fold increase of ≤1.2)”.

On to `Cc1cn2cc(-c3cc4ccc(N5CC(N6CCCCC6)C5)cc4oc3=O)nc2c(C)n1` [Compound 951, 3-(6,8-dimethylimidazo[1,2-a]pyrazin-2-yl)-7-[3-(piperidin-1-yl)azetidin-1-yl]-2H-chromen-2-one], for which the melting point was 284 to 286 °C. Further, the EC (1.5-fold) in data set [1] (setting [3]) is less than 0.1 µM. Further, the EC1.5x (concentration giving 1.5-fold Smn protein increase) in data set [2] (setting [4]) is 1000 to 3000 nM. Moreover, the “maximum fold (Fold) increase” value in data set [2] (setting [5]) was “**** (fold increase between >1.5 and ≤1.65)”.
